Source: US12077503B2, “Substituted cyclic amides and their use as herbicides” (FMC CORPORATION, priority 2015, dated 2024)

Key:
Assay type in all cases: in vivo
[1] = tested on: Kochia (Kochia scoparia); experiment: Test A preemergence; details: Bassia scoparia, pre-emergence, 240 h, Preemergence
Method in brief: (§1)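 Preemergence soil spray on seeded pots or post-emergence spray on 1–2 leaf plants, in loam–sand blend. Greenhouse ~10 d. Visual rating 0–100 against untreated plants.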

[2] = tested on: barnyardgrass (Echinochloa crus-galli); experiment: Test A preemergence; details: Echinochloa crus-galli, pre-emergence, 240 h, Preemergence
Method in brief: as §1

[3] = tested on: giant foxtail (Setaria faberii); experiment: Test A preemergence; details: Setaria faberi, pre-emergence, 240 h, Preemergence
Method in brief: as §1

[4] = tested on: pigweed (Amaranthus retroflexus); experiment: Test A preemergence; details: Amaranthus retroflexus, pre-emergence, 240 h, Preemergence
[5] = tested on: ragweed (common ragweed, Ambrosia elatior); experiment: Test A preemergence; details: Ambrosia artemisiifolia, pre-emergence, 240 h, Preemergence
Method in brief: as §1

[6] = tested on: ryegrass, Italian (Italian ryegrass, Lolium multiflorum); experiment: Test A preemergence; details: Lolium multiflorum, pre-emergence, 240 h, Preemergence
Method in brief: as §1

[7] = tested on: Galium (catchweed bedstraw, Galium aparine); experiment: Test A postemergence; details: Galium, post-emergence, 240 h, Postemergence
Method in brief: as §1

[8] = tested on: Kochia (Kochia scoparia); experiment: Test A postemergence; details: Bassia scoparia, post-emergence, 240 h, Postemergence
Method in brief: as §1

[9] = tested on: barnyardgrass (Echinochloa crus-galli); experiment: Test A postemergence; details: Echinochloa crus-galli, post-emergence, 240 h, Postemergence
Method in brief: as §1

[10] = tested on: blackgrass (Alopecurus myosuroides); experiment: Test A postemergence; details: Alopecurus myosuroides, post-emergence, 240 h, Postemergence
Method in brief: as §1

[11] = tested on: corn (Zea mays); experiment: Test A postemergence; details: Zea mays, post-emergence, 240 h, Postemergence
Method in brief: as §1

[12] = tested on: giant foxtail (Setaria faberii); experiment: Test A postemergence; details: Setaria faberi, post-emergence, 240 h, Postemergence
Method in brief: as §1

[13] = tested on: pigweed (Amaranthus retroflexus); experiment: Test A postemergence; details: Amaranthus retroflexus, post-emergence, 240 h, Postemergence
Method in brief: as §1

[14] = tested on: ragweed (common ragweed, Ambrosia elatior); experiment: Test A postemergence; details: Ambrosia artemisiifolia, post-emergence, 240 h, Postemergence
Method in brief: as §1

[15] = tested on: ryegrass, Italian (Italian ryegrass, Lolium multiflorum); experiment: Test A postemergence; details: Lolium multiflorum, post-emergence, 240 h, Postemergence
Method in brief: as §1

[16] = tested on: wheat (Triticum aestivum); experiment: Test A postemergence; details: Triticum aestivum, post-emergence, 240 h, Postemergence
Method in brief: as §1

[17] = tested on: barnyardgrass (Echinochloa crus-galli); experiment: Test B flooded paddy test; details: Echinochloa crus-galli, 360 h, Flood, 250 g ai/ha; visually evaluated after 13 to 15 d; read-out: Plant response rating, Barnyardgrass (0 to 100 scale where 0 is no effect and 100 is complete control)
Method in brief: (§2)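 Percent control, visually estimated after 13–15 d in the greenhouse on a 0–100 basis, compares treated pots with untreated ones; compound was put into paddy water 3 cm above the soil when plants had two leaves.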

[18] = tested on: ducksalad (Heteranthera limosa); experiment: Test B flooded paddy test; details: Heteranthera limosa, 360 h, Flood, 250 g ai/ha; visually evaluated after 13 to 15 d; read-out: Plant response rating, Ducksalad (0 to 100 scale where 0 is no effect and 100 is complete control)
Method in brief: as §2

[19] = tested on: rice (Oryra sativa); experiment: Test B flooded paddy test; details: Oryza sativa, 360 h, Flood, 250 g ai/ha; visually evaluated after 13 to 15 d; read-out: Plant response rating, Rice (0 to 100 scale where 0 is no effect and 100 is complete control)
Method in brief: as §2

[20] = tested on: sedge, umbrella (small-flower umbrella sedge, Cyperus difformis); experiment: Test B flooded paddy test; details: Cyperus difformis, 360 h, Flood, 250 g ai/ha; visually evaluated after 13 to 15 d; read-out: Plant response rating, Sedge, Umbrella (0 to 100 scale where 0 is no effect and 100 is complete control)
Method in brief: as §2

Compound `CN1C[C@H](c2ccc(Cl)cc2)[C@@H](C(=O)Nc2cccc(F)n2)C1=O` [Compound 1399] has a pest or weed control at 31 g/ha ([1]; 31 g ai/ha, 0 to 100 scale where 0 is no effect and 100 is complete control, read-out: Kochia plant response rating) of 20%, a pest or weed control at 125 g/ha ([1]; 125 g ai/ha, 0 to 100 scale (0 no effect, 100 complete control), read-out: Plant response rating, Kochia) of 70% and a pest or weed control at 31 g/ha ([2]; 31 g ai/ha, 0 to 100 scale where 0 is no effect and 100 is complete control, read-out: Barnyardgrass plant response rating) of 80%. For the same compound, the pest or weed control at 125 g/ha ([2]; 125 g ai/ha, 0 to 100 scale (0 no effect, 100 complete control), read-out: Plant response rating, Barnyardgrass) was 90%, the pest or weed control at 31 g/ha ([3]; 31 g ai/ha, 0 to 100 scale where 0 is no effect and 100 is complete control, read-out: Foxtail, Giant plant response rating) was 90% and the pest or weed control at 125 g/ha ([3]; 125 g ai/ha, 0 to 100 scale (0 no effect, 100 complete control), read-out: Plant response rating, Foxtail, Giant) was 90%. For the same compound, the pest or weed control at 31 g/ha ([4]; 31 g ai/ha, 0 to 100 scale where 0 is no effect and 100 is complete control, read-out: Pigweed plant response rating) was 30%, the pest or weed control at 125 g/ha ([4]; 125 g ai/ha, 0 to 100 scale (0 no effect, 100 complete control), read-out: Plant response rating, Pigweed) was 30% and the pest or weed control at 31 g/ha ([5]; 31 g ai/ha, 0 to 100 scale where 0 is no effect and 100 is complete control, read-out: Ragweed plant response rating) was 50%. The pest or weed control at 125 g/ha ([5]; 125 g ai/ha, 0 to 100 scale (0 no effect, 100 complete control), read-out: Plant response rating, Ragweed) was 60%, the pest or weed control at 31 g/ha ([6]; 31 g ai/ha, 0 to 100 scale where 0 is no effect and 100 is complete control, read-out: Ryegrass, Italian plant response rating) was 0% and the pest or weed control at 125 g/ha ([6]; 125 g ai/ha, 0 to 100 scale (0 no effect, 100 complete control), read-out: Plant response rating, Ryegrass, Italian) was 40%. It also gave a pest or weed control at 31 g/ha ([7]; 31 g ai/ha, 0 is no effect, 100 is complete control, read-out: Galium plant response rating (0 to 100 scale)) of 40%, a pest or weed control at 125 g/ha ([7]; 125 g ai/ha, visual injury after approx. 10 d, 0 to 100 scale, 0 no effect, 100 complete control, read-out: Plant response rating, Galium) of 60% and a pest or weed control at 31 g/ha ([8]; 31 g ai/ha, 0 is no effect, 100 is complete control, read-out: Kochia plant response rating (0 to 100 scale)) of 50%. It also gave a pest or weed control at 125 g/ha ([8]; 125 g ai/ha, visual injury after approx. 10 d, 0 to 100 scale, 0 no effect, 100 complete control, read-out: Plant response rating, Kochia) of 70%, a pest or weed control at 31 g/ha ([9]; 31 g ai/ha, 0 is no effect, 100 is complete control, read-out: Barnyardgrass plant response rating (0 to 100 scale)) of 90% and a pest or weed control at 125 g/ha ([9]; 125 g ai/ha, visual injury after approx. 10 d, 0 to 100 scale, 0 no effect, 100 complete control, read-out: Plant response rating, Barnyardgrass) of 90%. The pest or weed control at 31 g/ha ([10]; 31 g ai/ha, 0 is no effect, 100 is complete control, read-out: Blackgrass plant response rating (0 to 100 scale)) was 20%, the pest or weed control at 125 g/ha ([10]; 125 g ai/ha, visual injury after approx. 10 d, 0 to 100 scale, 0 no effect, 100 complete control, read-out: Plant response rating, Blackgrass) was 20% and the plant injury at 31 g/ha ([11]; 31 g ai/ha, 0 is no effect, 100 is complete control, read-out: Corn plant response rating (0 to 100 scale)) was 0%. The Corn plant response rating (crop injury, 0 = no effect, 100 = complete kill) at 125 g/ha ([11]; 125 g ai/ha, visual injury after approx. 10 d, 0 to 100 scale, 0 no effect, 100 complete control) was 0%, the pest or weed control at 31 g/ha ([12]; 31 g ai/ha, 0 is no effect, 100 is complete control, read-out: Foxtail, Giant plant response rating (0 to 100 scale)) was 70% and the pest or weed control at 125 g/ha ([12]; 125 g ai/ha, visual injury after approx. 10 d, 0 to 100 scale, 0 no effect, 100 complete control, read-out: Plant response rating, Foxtail, Giant) was 90%. It also gave a pest or weed control at 31 g/ha ([13]; 31 g ai/ha, 0 is no effect, 100 is complete control, read-out: Pigweed plant response rating (0 to 100 scale)) of 0%, a pest or weed control at 125 g/ha ([13]; 125 g ai/ha, visual injury after approx. 10 d, 0 to 100 scale, 0 no effect, 100 complete control, read-out: Plant response rating, Pigweed) of 40% and a pest or weed control at 31 g/ha ([14]; 31 g ai/ha, 0 is no effect, 100 is complete control, read-out: Ragweed plant response rating (0 to 100 scale)) of 0%. It also gave a pest or weed control at 125 g/ha ([14]; 125 g ai/ha, visual injury after approx. 10 d, 0 to 100 scale, 0 no effect, 100 complete control, read-out: Plant response rating, Ragweed) of 40%, a pest or weed control at 31 g/ha ([15]; 31 g ai/ha, 0 is no effect, 100 is complete control, read-out: Ryegrass, Italian plant response rating (0 to 100 scale)) of 20% and a pest or weed control at 125 g/ha ([15]; 125 g ai/ha, visual injury after approx. 10 d, 0 to 100 scale, 0 no effect, 100 complete control, read-out: Plant response rating, Ryegrass, Italian) of 20%. The plant injury at 31 g/ha ([16]; 31 g ai/ha, 0 is no effect, 100 is complete control, read-out: Wheat plant response rating (0 to 100 scale)) was 0%, the plant injury at 125 g/ha ([16]; 125 g ai/ha, visual injury after approx. 10 d, 0 to 100 scale, 0 no effect, 100 complete control, read-out: Plant response rating, Wheat) was 20% and the pest or weed control at 250 g/ha [17] was 85%. For the same compound, the pest or weed control at 250 g/ha [18] was 100%, the pest or weed control at 250 g/ha [19] was 15% and the pest or weed control at 250 g/ha [20] was 0%.
